Results: US20240352396A1, “PE[…]-C[…] CULTURE INCUBATOR” (Northeastern University, priority 2023, published 2024)

How the values were obtained:
MCF7 cultures = settings: MCF7 in 24-well plate, 5% O2 incubator, 5 mM sodium azide; rose from 3% O2 to the incubator setpoint; PBS-spiked cultures returned to 3% O2
Description: (§1) MCF7 were seeded overnight in a 24-well plate and incubated at 5% O2 for 24 hours. […] Cells were incubated with 1:1000 live/dead dye (LIVE/DEAD Fixable Kit, Thermo Fisher Scientific) for 1 hour. Flow cytometry (Attune NxT, Thermo Fisher Scientific) of live singlets was used to determine the cell viability.

MCF7 = settings: 5 mM NaN3, 6 hours, 5% O2
Description: as §1

[N-]=[N+]=[N-] [sodium azide]
pericellular O2 tension (MCF7 cultures): 5 % O2
MCF7 cell viability (MCF7): no significant change
